Results as given in US20110087153A1, “Transdermal Methods And Systems For The Delivery Of Rizatriptan” (priority 2009, published 2011).

Tests used:
[1] = Permeation of formulated product through human cadaver skin (iontophoresis, gel formulations); type: in vitro ADME; details: for Lag time: human cadaver skin, gel with 3.4% lauric acid, 2 mAmp/cm^2
Procedure: Brij 30 (Laureth-4) and adipic acid were obtained from Fisher Scientific. Eudragit E*PO was obtained from Evonik. Human cadaver skin was thawed in 0.9% NaCl for 30 minutes and patted dry. The skin was cut into 2 cm square sections. The epidermis was placed towards the donor compartment of a […] PermeGear side-by-side diffusion cell. The donor gel was placed in the donor compartment and 3 ml of normal saline solution was placed in the receiver compartment. Three cells were dosed with zolmitriptan with 3.4% lauric acid, three cells were dosed with rizatriptan with 3.4% lauric acid and two cells were dosed with rizatriptan with 3.4% Brij 30. The cells were clamped at 1.27 mAmp (2 mAmp/cm^2). Two ml of each receiver compartment was sampled every 30 minutes and replaced with normal saline solution. Each 2 ml sample was diluted 1 to 100 with water. Zolmitriptan and sumatriptan were assayed by UV at 222 nm Rizatriptan was assayed by HPLC as previously described. Additional analysis of the permeation data was conducted to find the amount of time to dose 5 mg of drug based on reasonable patch areas, and is shown in Table 4. […] However, as was observed by the previous permeation data, zolmitriptan would need a total of 43 minutes when the lag-time is considered compared to 19 minutes for rizatriptan when the lag time is considered.

[2] = Permeation through dialysis membrane (iontophoresis side-by-side diffusion cells); type: in vitro ADME
Procedure: Ionotophoresis side-by side diffusion cells with 9 mm diameter opening were obtained from PermeGear. The current clamps with PC control were provided by NuPathe, Inc. The temperature controller was from Henke. 2.0 mm diameter Zinc and Silver were obtained from Alpha Aesar. Sumatriptan, Zolmitriptan and Rizatriptan wore provided by NuPathe. Sodium chloride was obtained from Fisher Scientific,
A donor solution of 4% sumatriptan succinate in 0.9% NaCl was prepared. The receiver solution was 0.9% Sodium chloride in water. A Millipore 1000 mw cutoff membrane were used as the membrane. The glossy side of the membrane faced the donor compartment. The volume of the donor and receiver solution was 3.0 ml. 0.5 mm zinc wire was placed in the donor compartment and 2.0 mm silver wire was placed in the receiver compartment. The temperature of the apparatus was maintained at 33° C.
Ketoprofen was obtained from Spectrum Chemical. A 2% ketoprofen donor solution was made by dissolving in 0.1 N NaOH.
Three cells were clamped at 2 mAmps/cm^2 (1.27 mAmp/cell), 3 cells were clamped at 2 mAmp/cm^2 with the electrodes reversed, 3 cells (the control cells) were not clamped.
At each sampling point 2 ml was withdrawn from the receiver compartment and was replaced with 0.9% Sodium Chloride. Each sample was diluted using 0.9% NaCl to be within the standard curve. Absorbance was measured using a UV spectrophotometer with a 1 cm quartz cuvette at 282 nm. […]

[3] = Iontophoresis properties (charge and molecular weight analysis); type: physicochemical
Text: This is because the diffusion and permeation through a hydrophilic membrane are dependent on molecular weight, radius of the molecule and the ionic drag the molecule has with the membrane.

[4] = Permeation of compound through human cadaver skin (iontophoresis, drug solutions); type: in vitro ADME; details: 2 mAmp/cm^2, 2% zolmitriptan, 4% rizatriptan, 4% sumatriptan solutions (FIG. 5)
Procedure: Human cadaver skin was obtained from Allosource. The skin was maintained at −70° C. prior to use. A portion of skin was thawed in 0.9% NaCl solution for 30 minutes. The skin was towel dried and cut into 2 cm square sections. The skin was mounted with the epidermis side toward the donor chamber in the Permeagear 0.9 cm diameter side-by-side diffusion cells.
A solution of 2% zolmitriptan was made by dissolving zolmitriptan in 0.1 N HCl. A 4% sumatriptan solution was made by dissolving sumatriptan in 0.1% NaCl. The 4% rizatriptan solution was made by dissolving the rizatriptan in 0.1% NaCl
Three cells were dosed with 2% zolmitriptan, three cells were dosed with 4% rizatriptan, and two cells were dosed with 4% sumatriptan. Normal saline solution was used as the receiver solution. The cells were clamped at 1.27 mAmp (2 mAmp/cm^2). 2 ml of each receiver compartment was sampled every 30 minutes and replaced with normal saline solution. One cell of the rizatriptan iontophoresis and one cell of sumatriptan iontophoresis were lost during the study due to holes in the skin.
Each 2 ml sample was diluted 1 to 100 with water. Zolmitriptan and sumatriptan were assayed by UV at 222 nm and 282 nm respectively. Rizatriptan was assay by HPLC as previously described.

[5] = Oxidation stability for rizatriptan under 2 mA current; type: physicochemical; details: for Rizatriptan concentration after exposure to 2 mAmp current: 0.9% NaCl
Procedure: A drug stock solution was made by dissolving 2.8 mg of rizatriptan benzoate in 0.9% NaCl to a volume of 50 mL. The working standard was prepared by diluting 0.5 ml of the stock solution to 10 ml with 0.9% NaCl. This produced a final concentration of 2.8 mcg/ml, for the working standard.
A solution was made by dissolving 0.5000 g of rizatriptan benzoate in 0.9% NaCl to a final volume of 50 mL. A 1 ml sample of this solution was kept for future assay. The remaining solution was placed in a beaker covered with parafilm Zinc wire (Cathode) and silver wire (anode) were passed through the parafilm and placed in the drug solution. Current of 2 mA was passed through the solution. Samples of 1 mL each were withdrawn every 30 minutes for 5.5 hours.
A 0.1 mL volume from each sample was diluted with 15 mL of 0.9% NaCl. A 1 ml volume of this dilution was then further diluted to 10 ml using 0.9% NaCl. Similarly, a 0.1 ml volume of the initial solution was diluted with 15 mL of 0.9% NaCl. A 1 ml volume of this dilution was then diluted to 10 ml with 0.9% NaCl.

[6] = cited from earlier work
[7] = 1000 mwco dialysis membrane, 33° C., UV assay
[8] = 1000 mwco dialysis membrane, 33° C., UV assay, listed as ketoprofen

CN(C)CCc1c[nH]c2ccc(C[C@H]3COC(=O)N3)cc12 [Zolmitriptan]
Lag time [1]: 20 min | Total time to deliver 5 mg when the lag time is considered [1]: 43 min | Flux, Passive diffusion (No current) ([2]; not told): 3.32 mcg/cm^2/min | Flux, Reversed Electrodes (Current reversed at 2 mAmp/cm^2) ([2]; not told): 0.05 mcg/cm^2/min | Ratio of Iontophoresis to Passive Diffusion ([2]; not told): 11.5 | Ionizable Nitrogens [3]: 3 | MW/charge Ratio [3]: 92.8 | Skin permeation by iontophoresis [4]: very comparable to the permeation of sumatriptan via iontophoresis

CC(C(=O)O)c1cccc(C(=O)c2ccccc2)c1 (centres unmarked) [Ketoprofen]
Flux, Iontophoresis (2 mAmp/cm^2) [2, 7]: 8.24 mcg/cm^2/min | Flux, Passive diffusion (No current) [2, 7]: 7.41 mcg/cm^2/min | Flux, Reversed Electrodes (Current reversed at 2 mAmp/cm^2) [2, 7]: 11.66 mcg/cm^2/min | Flux, Iontophoresis (2 mAmp/cm^2) [2, 8]: less than the passive diffusion | Flux, Passive diffusion (No current) [2, 8]: substantial | Flux, Reversed Electrodes (Current reversed at 2 mAmp/cm^2) [2, 8]: greatest flux | Ratio of Iontophoresis to Passive Diffusion ([2]; 1000 mwco dialysis membrane, UV assay): 1.6

CNS(=O)(=O)Cc1ccc2[nH]cc(CCN(C)C)c2c1 [Sumatriptan]
Flux, Passive diffusion (No current) ([2]; not told): 0.58 mcg/cm^2/min | Flux, Reversed Electrodes (Current reversed at 2 mAmp/cm^2) ([2]; not told): 0.11 mcg/cm^2/min | Ionizable Nitrogens [3]: 2 | MW/charge Ratio [3]: 147.7

CN(C)CCc1c[nH]c2ccc(Cn3cncn3)cc12 [Rizatriptan]
Rizatriptan concentration after exposure to 2 mAmp current ([5]; 0 min): 10.000 mg/mL | Exposure time after which degradation becomes significant ([5]; 2 mA current): > 4 h | Rate of degradation ([5]; 2 mA current, regression with all data): ~16 µg/mL/min | Rizatriptan concentration after exposure to 2 mAmp current ([5]; 30 min): 10.041 mg/mL | Rizatriptan concentration after exposure to 2 mAmp current ([5]; 60 min): 9.829 mg/mL | Rizatriptan concentration after exposure to 2 mAmp current ([5]; 90 min): 9.909 mg/mL | Rizatriptan concentration after exposure to 2 mAmp current ([5]; 120 min): 9.782 mg/mL | Rizatriptan concentration after exposure to 2 mAmp current ([5]; 150 min): 9.942 mg/mL | Rizatriptan concentration after exposure to 2 mAmp current ([5]; 180 min): 9.875 mg/mL | Rizatriptan concentration after exposure to 2 mAmp current ([5]; 210 min): 9.801 mg/mL | Rizatriptan concentration after exposure to 2 mAmp current ([5]; 240 min): 9.758 mg/mL | Rizatriptan concentration after exposure to 2 mAmp current ([5]; 270 min): 9.963 mg/mL | Rizatriptan concentration after exposure to 2 mAmp current ([5]; 300 min): 9.216 mg/mL | Rizatriptan concentration after exposure to 2 mAmp current ([5]; 330 min): 9.389 mg/mL | Degradation ([5]; during the 5.5 hour exposure to 2 mA current): approximately 7% | Lag time [1]: 9 min | Total time to deliver 5 mg when the lag time is considered [1]: 19 min | Time in which a dose (5 mg) can be delivered ([1]; suggested by the results of the formulation studies): about 45 minutes | Ionizable Nitrogens [3]: 3 | MW/charge Ratio [3]: 89.8 | Skin permeation by iontophoresis [4]: greater skin permeation than sumatriptan and zolmitriptan

CCCCCCCCCCCC(=O)O [Lauric acid]
pKa [6]: around 4.9
